Where a SMILES comes first, the peptide text is derived from it. Bridges are numbered along the chain shown (N, C = ends). [ ]: non-standard residue; d: D form. The star is where a group is joined. Phe(4-CH2CH2COOH) = N[C@@H](Cc1ccc(CCC(=O)O)cc1)C(=O)O; Phe(4-COOH) = N[C@@H](Cc1ccc(C(=O)O)cc1)C(=O)O; Bip = N[C@@H](Cc1ccc(-c2ccccc2)cc1)C(=O)O; Phe(3-Me) = Cc1cccc(C[C@H](N)C(=O)O)c1; h4Pal = N[C@@H](CCc1ccncc1)C(=O)O; 4Pal = N[C@@H](Cc1ccncc1)C(=O)O; Cit = NC(=O)NCCC[C@H](N)C(=O)O; Carboxymethyl = O=C(O)C*; Orn = NCCC[C@H](N)C(=O)O; Dab = NCC[C@H](N)C(=O)O; Dap = NC[C@H](N)C(=O)O
Biological target: T1, human PD-1 / PD-L1-Ig binding on Jurkat cell line over-expressing human PD-1 (Jurkat-PD-1) (Homo sapiens, UniProt Q15116)
T1 construct: expressed in transfected cells; host or cells: Jurkat
T1 sequence (Q15116 25-288): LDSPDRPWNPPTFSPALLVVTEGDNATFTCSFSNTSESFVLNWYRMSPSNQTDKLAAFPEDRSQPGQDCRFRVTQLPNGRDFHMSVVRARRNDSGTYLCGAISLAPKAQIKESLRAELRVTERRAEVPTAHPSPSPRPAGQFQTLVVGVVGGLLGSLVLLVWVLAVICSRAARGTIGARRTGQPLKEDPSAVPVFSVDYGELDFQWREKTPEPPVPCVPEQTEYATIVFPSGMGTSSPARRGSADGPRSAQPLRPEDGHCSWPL
Assay: Jurkat-PD-1 Cell Binding High-Content Screening Assay (CBA)
Assay type: cell-based
Details: Jurkat-PD-1 cells, PE-labeled PD-L1-Ig 20 nM final; read-out: Jurkat HPD1_PDL1 IC50
Outline: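 Binding of fluorescent PD-L1-Ig (phycoerythrin linked via the Ig tag, 20 nM final) to PD-1-overexpressing Jurkat cells was imaged after a 2 h, 37° C compound pretreatment and 1 hour ligand incubation.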

| SMILES | IC50 [nM] |
| --- | --- |
| CC(C)C[C@@H]1NC(=O)[C@H](CCN)NC(=O)[C@@H](CC(C)C)NC(=O)[C@H](CCCN)NC(=O)[C@H](C(C)C)NC(=O)[C@H](Cc2ccc(-c3ccccc3)cc2)NC(=O)[C@H](C(C)C)NC(=O)[C@H](Cc2c[nH]c3ccccc23)NC(=O)[C@H](CC(=O)O)NC(=O)[C@H](Cc2ccc(C(=O)O)cc2)NC(=O)[C@H](Cc2ccc(OCC(=O)O)cc2)NC(=O)CSC[C@@H](C(=O)N[C@@H](C)C(N)=O)NC(=O)[C@H]([C@@H](C)O)NC(=O)[C@H](C(C)C)NC1=O [Compound 1248] ({CH2CO}-Y(Carboxymethyl)[Phe(4-COOH)]DWV[Bip]V[Orn][dL][Dab]LVTCA-NH2; thioether N-14) | 12.4 |
| CC[C@H](C)[C@@H]1NC(=O)[C@H](Cc2ccc(-c3ccccc3)cc2)NC(=O)[C@H](C(C)C)NC(=O)[C@H](Cc2cccc(C)c2)NC(=O)[C@H](CC(=O)O)NC(=O)[C@H](Cc2ccc(C(=O)O)cc2)NC(=O)[C@H](Cc2ccc(OCC(=O)O)cc2)NC(=O)CSC[C@@H](C(=O)N[C@@H](C)C(N)=O)NC(=O)[C@H]([C@@H](C)O)NC(=O)[C@H](C(C)C)NC(=O)[C@H](CC(C)C)NC(=O)[C@H](CCN)NC(=O)[C@@H](CC(C)C)NC(=O)[C@H](CCCN)NC1=O [Compound 1249] ({CH2CO}-Y(Carboxymethyl)[Phe(4-COOH)]D[Phe(3-Me)]V[Bip]I[Orn][dL][Dab]LVTCA-NH2; thioether N-14) | 4.6 |
| CC[C@H](C)[C@@H]1NC(=O)[C@H](Cc2ccc(-c3ccccc3)cc2)NC(=O)[C@H](C(C)C)NC(=O)[C@H](Cc2c[nH]c3ccccc23)NC(=O)[C@H](CC(=O)O)NC(=O)[C@H](Cc2ccc(C(=O)O)cc2)NC(=O)[C@H](Cc2ccc(OCC(=O)O)cc2)NC(=O)CSC[C@@H](C(=O)N[C@@H](C)C(N)=O)NC(=O)[C@H]([C@@H](C)O)NC(=O)[C@H](C(C)C)NC(=O)[C@H](CC(C)C)NC(=O)[C@H](CCN)NC(=O)[C@@H](CC(C)C)NC(=O)[C@H](CCCN)NC1=O [Compound 1250] ({CH2CO}-Y(Carboxymethyl)[Phe(4-COOH)]DWV[Bip]I[Orn][dL][Dab]LVTCA-NH2; thioether N-14) | 6.9 |
| Cc1cccc(C[C@@H]2NC(=O)[C@H](CC(=O)O)NC(=O)[C@H](Cc3ccc(C(=O)O)cc3)NC(=O)[C@H](Cc3ccc(OCC(=O)O)cc3)NC(=O)CSC[C@@H](C(=O)N[C@@H](C)C(N)=O)NC(=O)[C@H]([C@@H](C)O)NC(=O)[C@H](C(C)C)NC(=O)[C@H](CC(C)C)NC(=O)[C@H](CCN)NC(=O)[C@@H](CC(C)C)NC(=O)[C@H](CCCN)NC(=O)[C@H](CCCNC(N)=O)NC(=O)[C@H](Cc3ccc(-c4ccccc4)cc3)NC(=O)[C@H](C(C)C)NC2=O)c1 [Compound 1251] ({CH2CO}-Y(Carboxymethyl)[Phe(4-COOH)]D[Phe(3-Me)]V[Bip][Cit][Orn][dL][Dab]LVTCA-NH2; thioether N-14) | 7.9 |
| CC(C)C[C@@H]1NC(=O)[C@H](CCN)NC(=O)[C@@H](CC(C)C)NC(=O)[C@H](CCCN)NC(=O)[C@H](CCCNC(N)=O)NC(=O)[C@H](Cc2ccc(-c3ccccc3)cc2)NC(=O)[C@H](C(C)C)NC(=O)[C@H](Cc2c[nH]c3ccccc23)NC(=O)[C@H](CC(=O)O)NC(=O)[C@H](Cc2ccc(C(=O)O)cc2)NC(=O)[C@H](Cc2ccc(OCC(=O)O)cc2)NC(=O)CSC[C@@H](C(=O)N[C@@H](C)C(N)=O)NC(=O)[C@H]([C@@H](C)O)NC(=O)[C@H](C(C)C)NC1=O [Compound 1252] ({CH2CO}-Y(Carboxymethyl)[Phe(4-COOH)]DWV[Bip][Cit][Orn][dL][Dab]LVTCA-NH2; thioether N-14) | 21.5 |
| Cc1cccc(C[C@@H]2NC(=O)[C@H](CC(=O)O)NC(=O)[C@H](CCc3ccncc3)NC(=O)[C@H](CN)NC(=O)CSC[C@@H](C(=O)N[C@@H](C)C(N)=O)NC(=O)[C@H]([C@@H](C)O)NC(=O)[C@H](C(C)C)NC(=O)[C@H](CC(C)C)NC(=O)[C@H](CCN)NC(=O)[C@@H](CC(C)C)NC(=O)[C@H](CCCN)NC(=O)[C@H](C(C)C)NC(=O)[C@H](Cc3ccc(-c4ccccc4)cc3)NC(=O)[C@H](C(C)C)NC2=O)c1 [Compound 1253] ({CH2CO}-[Dap][h4Pal]D[Phe(3-Me)]V[Bip]V[Orn][dL][Dab]LVTCA-NH2; thioether N-14) | 6.8 |
| CC(C)C[C@@H]1NC(=O)[C@H](Cc2c[nH]c3ccccc23)NC(=O)[C@H](CC(=O)O)NC(=O)[C@H](Cc2ccc(C(=O)O)cc2)NC(=O)[C@H](Cc2ccc(OCC(=O)O)cc2)NC(=O)CSC[C@@H](C(=O)NCC(N)=O)NC(=O)[C@H](CO)NC(=O)[C@H](C(C)C)NC(=O)[C@H](CC(C)C)NC(=O)[C@H](CCN)NC(=O)[C@@H](CC(C)C)NC(=O)[C@H](CCCN)NC(=O)[C@H](C(C)C)NC(=O)[C@H](Cc2ccc(-c3ccccc3)cc2)NC1=O [Compound 1254] ({CH2CO}-Y(Carboxymethyl)[Phe(4-COOH)]DWL[Bip]V[Orn][dL][Dab]LVSCG-NH2; thioether N-14) | 7.4 |
| CC(C)C[C@@H]1NC(=O)[C@H](Cc2c[nH]c3ccccc23)NC(=O)[C@H](CC(=O)O)NC(=O)[C@H](Cc2ccc(CCC(=O)O)cc2)NC(=O)[C@H](Cc2ccc(OCC(=O)O)cc2)NC(=O)CSC[C@@H](C(=O)NCC(N)=O)NC(=O)[C@H](CO)NC(=O)[C@H](C(C)C)NC(=O)[C@H](CC(C)C)NC(=O)[C@H](CCN)NC(=O)[C@@H](CC(C)C)NC(=O)[C@H](CCCN)NC(=O)[C@H](C(C)C)NC(=O)[C@H](Cc2ccc(-c3ccccc3)cc2)NC1=O [Compound 1256] ({CH2CO}-Y(Carboxymethyl)[Phe(4-CH2CH2COOH)]DWL[Bip]V[Orn][dL][Dab]LVSCG-NH2; thioether N-14) | 6.7 |
| CC(C)C[C@@H]1NC(=O)[C@H](Cc2c[nH]c3ccccc23)NC(=O)[C@H](CC(=O)O)NC(=O)[C@H](Cc2ccc(OCC(=O)O)cc2)NC(=O)[C@H](CN)NC(=O)CSC[C@@H](C(=O)NCC(N)=O)NC(=O)[C@H](CO)NC(=O)[C@H](C(C)C)NC(=O)[C@H](CC(C)C)NC(=O)[C@H](CCN)NC(=O)[C@@H](CC(C)C)NC(=O)[C@H](CCCN)NC(=O)[C@H](C(C)C)NC(=O)[C@H](Cc2ccc(-c3ccccc3)cc2)NC1=O [Compound 1257] ({CH2CO}-[Dap]Y(Carboxymethyl)DWL[Bip]V[Orn][dL][Dab]LVSCG-NH2; thioether N-14) | 5.6 |
| CC(C)C[C@@H]1NC(=O)[C@H](Cc2c[nH]c3ccccc23)NC(=O)[C@H](CC(=O)O)NC(=O)[C@H](Cc2ccncc2)NC(=O)[C@H](Cc2ccc(OCC(=O)O)cc2)NC(=O)CSC[C@@H](C(=O)NCC(N)=O)NC(=O)[C@H](CO)NC(=O)[C@H](C(C)C)NC(=O)[C@H](CC(C)C)NC(=O)[C@H](CCN)NC(=O)[C@@H](CC(C)C)NC(=O)[C@H](CCCN)NC(=O)[C@H](C(C)C)NC(=O)[C@H](Cc2ccc(-c3ccccc3)cc2)NC1=O [Compound 1258] ({CH2CO}-Y(Carboxymethyl)[4Pal]DWL[Bip]V[Orn][dL][Dab]LVSCG-NH2; thioether N-14) | 8 |
| Cc1cccc(C[C@@H]2NC(=O)[C@H](CC(=O)O)NC(=O)[C@H](Cc3ccc(C(=O)O)cc3)NC(=O)[C@H](Cc3ccc(OCC(=O)O)cc3)NC(=O)CSC[C@@H](C(=O)NCC(N)=O)NC(=O)[C@H](CO)NC(=O)[C@H](C(C)C)NC(=O)[C@H](CC(C)C)NC(=O)[C@H](CCN)NC(=O)[C@@H](CC(C)C)NC(=O)[C@H](CCCN)NC(=O)[C@H](C(C)C)NC(=O)[C@H](Cc3ccc(-c4ccccc4)cc3)NC(=O)[C@H](CC(C)C)NC2=O)c1 [Compound 1260] ({CH2CO}-Y(Carboxymethyl)[Phe(4-COOH)]D[Phe(3-Me)]L[Bip]V[Orn][dL][Dab]LVSCG-NH2; thioether N-14) | 7.4 |

Reference: patent US20250163104A1, “MACROCYCLIC IMMUNOMODULATORS” (priority 2021, published 2025)
